In patent publication US7071294B1, “Tumor antigen protein art-1 and tumor antigen peptide thereof” (Green Peptide Co., Ltd., priority 1998, dated 2006):
Each block holds one molecule with its values, some of them ahead of it. Where no end group is shown, it is not given here.

Tests used:
KG-CTL = test: IFN-γ production by KG-CTL in response to HLA-A2402-transfected COS-7 cells pulsed with peptide (ELISA); format: cell-based, human; settings: COS-7 transfected with HLA-A2402 cDNA
Experimental: A surgical sample taken from a patient with lung cancer was cut into small pieces, and then stirred in a culture fluid containing collagenase and DNAse to suspend cells. The cell suspension was centrifuged using Ficoll Conray solution to separate lymphocytes. The lymphocytes were cultured on 24-well plate in a culture medium consisting of 45% RPMI-1640, 45% AIM-V (GIBCO BRL), and 10% FCS supplemented with 100 U/ml interleukin-2 and 0.1 mM NEAA (GIBCO BRL) (hereinafter referred to as lymphocyte medium). During the first two days of the cultivation, an anti-CD3 antibody NU-T3 (Nichirei Corporation) was added to the culture medium at 1 μg/ml. The cultivation was continued for more than 30 days, and a CTL line that is reactive with some kinds of HLA-A24- or HLA-A2-positive cancer cell lines was established. The established CTL line was named KG-CTL and used in subsequent procedures. The reactivity of KG-CTL to each cancer cell line was examined by inoculating the cancer cell line into 96-well plate at 1×10^4, adding KG-CTL at 1×10^5/well thereto on the following day, culturing the same for additional 18 hours, and then determining amount of interferon-γ (IFN-γ) produced by KG-CTL in the recovered culture medium. Measurement of IFN-γ was conducted by enzyme immunoassay (ELISA). […] Anti-human IFN-γ rabbit polyclonal antibody as detection antibody was then allowed to bind, and after binding to an anti-rabbit immunoglobulin goat antibody labeled with […] (Amersham), the chromophore was developed using Peroxidase Chromophoric Kit T (Sumitomo Bakelite), followed by measuring absorbance at 405 nm. The absorbance was compared with that obtained with standard IFN-γ to determine the amount of IFN-γ in the sample. […] The cells were then cultured with 2×10^4 KG-CTLs for 18 hours, and the amount of IFN-γ produced by KG-CTL in the culture supernatant was determined by the ELISA method, thus identifying tumor antigen peptides.

[1] = tested on: peripheral blood lymphocytes; test: CTL induction from peripheral blood lymphocytes by tumor antigen peptides; IFN-γ produced in response to MT-2 target cells (ELISA); format: cell-based, human; settings: for IFN-γ in Supernatant: HLA-A24 heterozygous healthy donor lymphocytes stimulated three times with 10 μM peptide, 8×10^4 lymphocytes vs 1×10^4 MT-2 target cells, no peptide gave 3; for IFN-γ production by peptide-stimulated peripheral blood lymphocytes in response to the target cell (CTL induction): MT-2 target cells, not seen with no stimulation
Experimental: Using the Ficoll method, lymphocytes were separated from peripheral blood of healthy donors who were heterozygous for A24 in the HLA-A locus. The lymphocytes were placed into wells of a 24-well plate at 2×10^6 cells/well, and cultured in the lymphocyte medium. The above tumor antigen peptides were added to the culture medium at 10 μM to stimulate the peripheral blood lymphocytes. One week later, the above tumor antigen peptides were added to attain 10 μM together with about 2×10^5 cells of X-radiated (50 Gy) peripheral blood lymphocytes for the second stimulation. Additional one week later, the third stimulation was conducted in a similar manner. Cultured lymphocytes were harvested one week after the third stimulation. Using as target cells (1×10^4 cells) MT-2, which is an HLA-A2402-positive leukemia cell line expressing the tumor antigen peptide, the amount of IFN-γ in the culture medium produced by the above lymphocytes (8×10^4 cells) in response to the target cells was measured in accordance with ELISA method.

[2] = target: T1, HLA-A2402 expressed on COS-7 cells transfected with a recombinant plasmid for HLA-A2402 cDNA (human, UniProt P04439-2 25-302 at identity 0.92)); test: cell-based or functional assay
T1 MHC heavy: not shown

Molecule: LYQAVATI [158–165]
Reactivity of KG-CTLs compared to cells pulsed with no peptide (KG-CTL): reacted more strongly
IFN-γ in Supernatant [1]: 330 pg/mL
IFN-γ production by peptide-stimulated peripheral blood lymphocytes in response to the target cell (CTL induction) [1]: produced IFN-γ in response to the target cell

Molecule: GFDCANESVL [170–179]
Reactivity of KG-CTLs compared to cells pulsed with no peptide (KG-CTL): reacted more strongly
IFN-γ in Supernatant [1]: 237 pg/mL
IFN-γ production by peptide-stimulated peripheral blood lymphocytes in response to the target cell (CTL induction) [1]: produced IFN-γ in response to the target cell

Molecule: EYCLKFTKL [188–196]
Reactivity of KG-CTLs compared to cells pulsed with no peptide (KG-CTL): reacted more strongly
IFN-γ in Supernatant [1]: 147 pg/mL
IFN-γ production by peptide-stimulated peripheral blood lymphocytes in response to the target cell (CTL induction) [1]: produced IFN-γ in response to the target cell

Amount of IFN-γ produced by KG-CTL in the response [2]: 399 pg/mL
B1: Glu-Tyr-Cys-Leu-Lys-Phe-Thr-Lys-Leu, peptide from position 188 to position 196 of tumor antigen protein ART-1 (peptide)
peptide: EYCLKFTKL

Amount of IFN-γ produced by KG-CTL in the response [2]: 289 pg/mL
B2: Leu-Tyr-Gln-Ala-Val-Ala-Thr-Ile, peptide from position 158 to position 165 of tumor antigen protein ART-1 (peptide)
peptide: LYQAVATI

Amount of IFN-γ produced by KG-CTL in the response [2]: 458 pg/mL
B3: Gly-Phe-Asp-Cys-Ala-Asn-Glu-Ser-Val-Leu, peptide from position 170 to position 179 of tumor antigen protein ART-1 (peptide)
peptide: GFDCANESVL
